Assay results as given in patent EP0388528B1, “Carboximidamide derivatives” (KIRIN BEER KABUSHIKI KAISHA, priority 1988, dated 1990).

How the values were obtained:
[1] = test system: isolated rat heart; test: Effect on isolated rat heart (Langendorff's method); details: 1 × 10⁻⁸ mol/min, mean ± S.D.
Method: The effect of the compound of the present invention on heart of rats was examined by using the Langendorff's method [test compound: N-cyano-N′-(2-nitroxyethyl)-3-pyridinecarboximidamide (compound (13))]. Hearts were excised from male rats (weighing 250-350 g) and perfused at 80 cmH₂O in a Langendorff fashion. Krebs-Hensaleit bicarbonate solution (pH 7.4, 37°C) containing an 11 mM glucose which was oxygenated with 95% O₂- 5% CO₂ gas mixture was used as a perfusate. The left ventricular pressure was recorded by inserting a latex baloon into the left ventricle, and heart rate was determined from the pulse of it. Coronary perfusate flow was also measured with an electromagnetic flowmeter. The experiments were carried out by perfusing a perfusate containing the compound (13) for 10 minutes after an initial equilibration period for 30 minutes. As the control compound, nicorandil which has an effect opening potassium channel and is similar to the test compound in structure was used. The changes in the coronary perfusate flow and the cardiac function (heart rate × left ventricular pressure) caused by these compounds were expressed as percent changes from the preperfusion values of the compound (13) or nicorandil.

[2] = test system: beagles; test: Hemodynamic profile in beagles (intraduodenally); format: in vivo; details: intraduodenal 100 µg/kg, percent change from pretreatment; for Total Peripheral Resistance: mean aortic blood pressure / (coronary + aortic blood flow)
Method: The aortic blood pressure, the heart rate and the coronary blood flow of the beagles anesthetized with pentobarbital were determined in the same manner as in the aforementioned Example 1)-7, and the aortic blood flow was measured with an electromagnetic flowmeter (MFV-3100, manufactured by Nihon Kohden) by attaching a probe at the origin of the aorta [test compound: N-cyano-N′-(2-nitroxyethyl)-3-pyridinecarboximidamide (compound (13))]. A nelaton's tube was inserted into the duodenum via a small abdominal incision for administration of the compound (13) (100 µg/kg). Time course changes in respective measurement items were expressed as percent changes from the pretreatment values. Total peripheral resistance was calculated by dividing the mean aortic blood pressure with the sum of the coronary blood flow and the aortic blood flow.

[3] = test system: spontaneous hypertensive rats (SHR); test: Hypotensive effect on spontaneous hypertensive rats (orally); format: in vivo; details: systolic pressure 2 hours after administration
Method: Systolic pressure of the rats fasted for 24 hour was measured by using the tail cuff method before and 2 hours after administration of the compound. The compound was dissolved in a mixed solvent of polyethylene glycol 200 : physiological saline = 1:1. The control group was administered the solvent alone. The change in blood pressure was expressed as percent of the blood pressure before the administration of the compound in respective groups.

With `N#CNC(=NCCO[N+](=O)[O-])c1cccnc1` [Compound (13), N-cyano-N'-(2-nitroxyethyl)-3-pyridinecarboximidamide] the “Coronary Perfusate Flow (% change)” value ([1]; perfusion 10 minutes) was 51.3±3.2 % change, the “Cardiac Function” value ([1]; heart rate × left ventricular pressure, percent change from preperfusion) was 13.3±6.5% and the “Aortic Blood Flow” value ([2]; 1 min after dosage) was 10.0%. The “Coronary Blood Flow” value ([2]; 1 min after dosage) was 1.8± 1.8%, the “Heart Rate” value ([2]; 1 min after dosage) was 0% and the “Mean Aortic Blood Pressure” value ([2]; 1 min after dosage) was -9.8± 1.0%. The “Total Peripheral Resistance” value ([2]; 1 min after dosage) was -17.8%, the “Aortic Blood Flow” value ([2]; 2 min after dosage) was 12.2% and the “Coronary Blood Flow” value ([2]; 2 min after dosage) was 14.4± 2.1%. For the same molecule, the “Heart Rate” value ([2]; 2 min after dosage) was 1.6± 1.6%, the “Mean Aortic Blood Pressure” value ([2]; 2 min after dosage) was -14.3± 1.3% and the “Total Peripheral Resistance” value ([2]; 2 min after dosage) was -24.1%. The “Aortic Blood Flow” value ([2]; 3 min after dosage) was 15.1%, the “Coronary Blood Flow” value ([2]; 3 min after dosage) was 38.4± 9.1% and the “Heart Rate” value ([2]; 3 min after dosage) was 0%. For the same molecule, the “Mean Aortic Blood Pressure” value ([2]; 3 min after dosage) was -21.2± 1.2%, the “Total Peripheral Resistance” value ([2]; 3 min after dosage) was -33.7% and the “Aortic Blood Flow” value ([2]; 5 min after dosage) was 27.0%. The “Coronary Blood Flow” value ([2]; 5 min after dosage) was 121.5± 22.0%, the “Heart Rate” value ([2]; 5 min after dosage) was -12.1± 5.1% and the “Mean Aortic Blood Pressure” value ([2]; 5 min after dosage) was -35.0± 2.0%. The “Total Peripheral Resistance” value ([2]; 5 min after dosage) was -49.5%, the “Aortic Blood Flow” value ([2]; 7.5 min after dosage) was 25.5% and the “Coronary Blood Flow” value ([2]; 7.5 min after dosage) was 142.3± 6.5%. For the same molecule, the “Heart Rate” value ([2]; 7.5 min after dosage) was -17.5± 4.1%, the “Mean Aortic Blood Pressure” value ([2]; 7.5 min after dosage) was -37.0± 2.9% and the “Total Peripheral Resistance” value ([2]; 7.5 min after dosage) was -50.3%. The “Aortic Blood Flow” value ([2]; 10 min after dosage) was 15.0%, the “Coronary Blood Flow” value ([2]; 10 min after dosage) was 112.8± 10.6% and the “Heart Rate” value ([2]; 10 min after dosage) was -21.1± 4.4%. For the same molecule, the “Mean Aortic Blood Pressure” value ([2]; 10 min after dosage) was -42.0± 2.9%, the “Total Peripheral Resistance” value ([2]; 10 min after dosage) was -51.1% and the “Aortic Blood Flow” value ([2]; 20 min after dosage) was 10.7%. The “Coronary Blood Flow” value ([2]; 20 min after dosage) was 64.2± 15.4%, the “Heart Rate” value ([2]; 20 min after dosage) was -26.1± 5.5% and the “Mean Aortic Blood Pressure” value ([2]; 20 min after dosage) was -49.4± 3.1%. The “Total Peripheral Resistance” value ([2]; 20 min after dosage) was -55.3%, the “Aortic Blood Flow” value ([2]; 30 min after dosage) was 8.3% and the “Coronary Blood Flow” value ([2]; 30 min after dosage) was 60.1± 15.1%. For the same molecule, the “Heart Rate” value ([2]; 30 min after dosage) was -26.5± 4.6%, the “Mean Aortic Blood Pressure” value ([2]; 30 min after dosage) was -49.0± 3.7% and the “Total Peripheral Resistance” value ([2]; 30 min after dosage) was -55.8%. For the same molecule, the “Aortic Blood Flow” value ([2]; 60 min after dosage) was 0.5%, the “Coronary Blood Flow” value ([2]; 60 min after dosage) was 28.0± 11.6% and the “Heart Rate” value ([2]; 60 min after dosage) was -10.0± 1.4%. The “Mean Aortic Blood Pressure” value ([2]; 60 min after dosage) was -36.5± 7.3%, the “Total Peripheral Resistance” value ([2]; 60 min after dosage) was -44.3% and the “Decreasing Rate of Blood Pressure (%)” value ([3]; 0.3 mg/kg p.o.) was 6.76 ± 1.53%. The “Decreasing Rate of Blood Pressure (%)” value ([3]; 0.5 mg/kg p.o.) was 9.12 ± 2.41%, the “Decreasing Rate of Blood Pressure (%)” value ([3]; 1.0 mg/kg p.o.) was 27.31 ± 2.32% and the “Decreasing Rate of Blood Pressure (%)” value ([3]; 3.0 mg/kg p.o.) was 49.99 ± 2.48%.
